Where two headings read alike, the source gives them in different places.
Assays:
[1] = Metabolic stability, HLM; type: in vitro ADME, human
[2] = test system: telomerase (extracts from A2780 human ovarian carcinoma cells); assay: Modified telomeric repeat amplification protocol (TRAP) assay, cell-free; type: biochemical
Procedure: The ability of compounds to inhibit telomerase in a cell-free assay was assessed with a modified TRAP assay using extracts from exponentially growing A2780 human ovarian carcinoma cells. The TRAP assay was performed in 2 steps: • (a) telomerase-mediated extension of the forward primer (TS: 5′-AATCCGTCGAGCAGAGTT, Oswel Ltd., Southampton, UK) contained in a 40 μL reaction mix comprising TRAP buffer (20 mM Tris-HCl (pH 8.3), 68 mM KCl, 1.5 mM MgCl2, 1 mM EGTA, 0.05% v/v Tween 20), 0.05 μg bovine serum albumin, 50 μM of each deoxynucleotide triphosphate, 0.1 μg TS primer, and 3 μCi of [α-P]dCTP (Amersham plc, UK)Protein (40 ng or 20 ng) was then incubated with the reaction mix and agent (acid addition and quaternary dimethiodide salts) at final concentrations of up to 50 μM for 20 min at 25° C. A lysis buffer (no protein) control, heat-inactivated protein control, and 50% protein (20 ng or 10 ng) control were included in each assay; and • (b) while heating at 80° C. in a PCR block of a thermal cycler (Hybaid, UK) for 5 min to inactivate telomerase activity, 0.1 μg of reverse CX primer (3′-[…]-5′) and 2 Units of Taq DNA polymerase (“red hot”, Advanced Biotechnologies) were added. A 3-step PCR was then performed: 94° C. for 30 s, 50° C. for 30 s, and 72° C. for 1 min for 31 cycles. Telomerase-extended PCR products in the presence or absence of compounds were then determined either by electrophoretic separation using 8% w/w acrylamide denaturing gels and analysis by phosphorimaging or autoradiography, or by harvesting on Whatman filters (25 mm glass microfibre) and analysis by liquid scintillation counting.

[3] = test system: G-quadruplex DNA (F21T oligonucleotide); assay: FRET DNA melting assay; type: binding; settings: [conc]ΔTm=20 value
Procedure: The ability of the compounds to stabilise G-quadruplex DNA was investigated using a fluorescence resonance energy transfer (FRET) assay modified to be used as a high-throughput screen in a 96-well format. The labelled oligonucleotide F21T (5′-FAM-dGGG(TTAGGG)-3-TAMRA-3′) used as the FRET probe was diluted from stock to the correct concentration (400 nM) in a 50 mM potassium cacodylate buffer (pH 7.4) and then annealed by heating to 85° C. for 10 min., followed by cooling to room temperature in the heating block.
Compounds were stored as 10 mM stock solutions in DMSO; final solutions (at 2× concentration) were prepared using water or 1M HCl in the initial 1:10 dilution, after which 50 mM potassium cacodylate buffer (pH 7.4) was used in all subsequent steps. 96-well plates (MJ Research, Waltham, Mass.) were prepared by aliquoting 50 μl of the annealed DNA to each well, followed by […] of the compound solutions. Measurements were made on a DNA Engine Opticon (MJ Research) with excitation at 450-495 nm and detection at 515-545 nm. Fluorescence readings were taken at intervals of 0.5° C. over the range 30-100° C., with a constant temperature being maintained for 30 seconds prior to each reading to ensure a stable value. Final analysis of the data was carried out using a script written in the program Origin 7.0 (OriginLab Corp., Northampton, Mass.). […]

[4] = LogP/D measurement (octanol/ISA water titration); type: physicochemical; settings: for logD / logP: octanol/ISA (ionic strength adjusted) water; for logP / Measured LogPion: octanol/ISA water; for logP: read-out: Measured LogP
Procedure: The LogP values were measured by titration of solutions of the compound in Octanol/ISA (ionic strength adjusted) water mixtures on a Sirius GipKa instrument. Titrations in different ratios of Octanol to water enabled the calculation of the Log Pion values and therefore the LogD profile. Prediction of LogP values were made using ACD v8.07 and Syracuse KNOWWIN v1.67 software.

[5] = Cytotoxicity / growth inhibition, A549; type: cell-based; settings: human, A549 cells; read-out: Cytotoxic IC50 vs. A549
[6] = Cytotoxicity / growth inhibition, MCF7; type: cell-based; settings: human, MCF7 cells; read-out: Cytotoxic IC50 vs. MCF7
[7] = Log P (summary of biological and physicochemical properties, Table 4)
[8] = Table 3, unit inferred, read-out: TRAP EC50
[9] = Table 4, read-out: Telomerase EC50
[10] = pH 6, read-out: Measured LogD pH 6
[11] = pH 6.5, read-out: Measured LogD pH 6.5
[12] = pH 7.4, read-out: Measured LogD pH 7.4

SMILES	HLM (t = 45) [1]	HLM (t = 90) [1]	EC50 [2, 8]	EC50 [2, 9]	FRET [3]	logD [4, 10]	logD [4, 11]	logD [4, 12]	logP [4]	Measured LogPion [4]	IC50 at 96 h [5]	IC50 at 96 h [6]	logP [7]
O=C(CCN1CCCC1)Nc1ccc2c(NCc3ccc(F)c(F)c3)c3ccc(NC(=O)CCN4CCCC4)cc3nc2c1 [BSG17, N-(9-(3,4-Difluoro-benzylamino)-6-(3-pyrolidin-1-yl-propionamide)-acridin-3-yl)-3-pyrrolidin-1-yl-propionamide]	3.1	12.4	32 nM	162 nM	0.46 µM	-0.15	0.38	1.58	5.54	3.75	2120 nM	2260 nM	1.59
CN(C)c1ccc(Nc2c3ccc(NC(=O)CCN4CCCC4)cc3nc3cc(NC(=O)CCN4CCCC4)ccc23)cc1 [BSG01]	6.1	11.2	115 nM	115 nM	0.72 µM	-2.56	-1.47	0.74	5.02	2.62	2420 nM	2530 nM	1.4

— patent US20080319001A1, “Cancer Treatment Using Specific 3,6,9-Substituted Acridines” (priority 2005, published 2008)
